From ChEMBL document CHEMBL5291721, “A preclinical secondary pharmacology resource illuminates target-adverse drug reaction associations of marketed drugs” (Nat Commun, 2023)

Columns and labels:
[1] = molecular target: T1, 5-hydroxytryptamine receptor 1A (Homo sapiens, UniProt P08908)
T1 sequence (P08908 whole entry): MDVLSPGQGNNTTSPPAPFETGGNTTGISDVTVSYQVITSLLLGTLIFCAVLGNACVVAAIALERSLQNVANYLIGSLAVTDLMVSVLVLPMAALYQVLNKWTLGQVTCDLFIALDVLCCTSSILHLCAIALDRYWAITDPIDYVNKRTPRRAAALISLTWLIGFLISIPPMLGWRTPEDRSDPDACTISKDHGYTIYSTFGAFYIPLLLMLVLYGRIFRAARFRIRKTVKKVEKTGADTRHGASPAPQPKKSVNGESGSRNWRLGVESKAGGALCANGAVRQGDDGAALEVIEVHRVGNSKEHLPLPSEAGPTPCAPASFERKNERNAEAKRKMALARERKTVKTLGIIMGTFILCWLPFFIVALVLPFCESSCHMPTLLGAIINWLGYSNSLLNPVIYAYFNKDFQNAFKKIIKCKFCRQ

[2] = molecular target: Voltage-gated inwardly rectifying potassium channel KCNH2 (Homo sapiens, UniProt Q12809); type: functional
Progesterone receptor = molecular target: T2, Progesterone receptor (Homo sapiens, UniProt P06401)
T2 sequence (P06401 whole entry): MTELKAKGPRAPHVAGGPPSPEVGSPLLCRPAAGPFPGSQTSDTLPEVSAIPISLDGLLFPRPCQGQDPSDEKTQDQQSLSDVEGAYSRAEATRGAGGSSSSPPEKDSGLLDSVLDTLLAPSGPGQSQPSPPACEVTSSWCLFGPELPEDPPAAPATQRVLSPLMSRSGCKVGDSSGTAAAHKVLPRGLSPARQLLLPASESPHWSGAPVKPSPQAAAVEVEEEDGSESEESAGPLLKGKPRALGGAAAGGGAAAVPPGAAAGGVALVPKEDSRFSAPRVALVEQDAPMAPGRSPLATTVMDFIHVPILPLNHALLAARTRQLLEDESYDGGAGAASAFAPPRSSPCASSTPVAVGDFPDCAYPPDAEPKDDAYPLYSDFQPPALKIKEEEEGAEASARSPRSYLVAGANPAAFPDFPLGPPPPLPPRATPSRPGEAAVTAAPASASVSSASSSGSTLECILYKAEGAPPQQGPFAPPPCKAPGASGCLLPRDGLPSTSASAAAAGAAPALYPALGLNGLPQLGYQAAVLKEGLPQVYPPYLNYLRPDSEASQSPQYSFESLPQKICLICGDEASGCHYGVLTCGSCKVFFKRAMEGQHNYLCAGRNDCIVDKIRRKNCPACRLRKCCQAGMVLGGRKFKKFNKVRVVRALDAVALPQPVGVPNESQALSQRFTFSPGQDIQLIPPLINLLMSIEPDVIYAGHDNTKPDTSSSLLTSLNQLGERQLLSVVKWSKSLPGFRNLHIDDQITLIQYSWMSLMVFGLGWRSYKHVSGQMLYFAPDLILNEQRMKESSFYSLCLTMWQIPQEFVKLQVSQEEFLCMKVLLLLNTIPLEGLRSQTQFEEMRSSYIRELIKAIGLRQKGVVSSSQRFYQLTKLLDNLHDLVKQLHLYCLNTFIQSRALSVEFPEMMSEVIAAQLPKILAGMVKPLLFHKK

[3] = molecular target: T3, Alpha-2A adrenergic receptor (Homo sapiens, UniProt P08913)
T3 sequence (P08913 whole entry): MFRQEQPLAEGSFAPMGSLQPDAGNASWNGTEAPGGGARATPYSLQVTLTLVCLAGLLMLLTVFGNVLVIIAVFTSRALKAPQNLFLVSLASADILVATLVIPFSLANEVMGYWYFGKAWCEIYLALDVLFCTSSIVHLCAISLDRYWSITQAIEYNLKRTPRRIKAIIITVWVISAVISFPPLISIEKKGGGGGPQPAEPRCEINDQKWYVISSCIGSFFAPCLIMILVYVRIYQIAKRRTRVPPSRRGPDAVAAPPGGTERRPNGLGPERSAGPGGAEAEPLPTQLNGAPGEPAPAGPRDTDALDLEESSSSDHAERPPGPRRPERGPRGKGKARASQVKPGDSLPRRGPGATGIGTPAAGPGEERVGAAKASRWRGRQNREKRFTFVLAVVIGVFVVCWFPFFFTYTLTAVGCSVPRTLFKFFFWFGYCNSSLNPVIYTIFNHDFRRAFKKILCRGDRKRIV

[4] = molecular target: Sodium-dependent dopamine transporter (Homo sapiens, UniProt Q01959)
Thromboxane A2 receptor [5] = molecular target: T4, Thromboxane A2 receptor (Homo sapiens, UniProt P21731); type: functional, cell-based
T4 sequence (P21731 whole entry): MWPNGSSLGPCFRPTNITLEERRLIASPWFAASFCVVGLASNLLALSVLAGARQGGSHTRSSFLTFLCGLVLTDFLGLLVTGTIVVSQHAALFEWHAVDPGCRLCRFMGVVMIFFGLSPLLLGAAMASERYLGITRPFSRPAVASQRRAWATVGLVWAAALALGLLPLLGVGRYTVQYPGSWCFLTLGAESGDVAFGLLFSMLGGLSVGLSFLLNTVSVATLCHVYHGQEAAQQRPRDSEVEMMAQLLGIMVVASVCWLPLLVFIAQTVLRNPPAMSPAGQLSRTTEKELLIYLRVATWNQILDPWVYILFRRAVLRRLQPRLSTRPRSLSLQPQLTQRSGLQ

[6] = molecular target: Prostaglandin G/H synthase 1 (Homo sapiens, UniProt P23219); type: functional
[7] = molecular target: cGMP-inhibited 3',5'-cyclic phosphodiesterase 3A (Homo sapiens, UniProt Q14432); type: functional
Histamine H3 receptor = Histamine H3 receptor (Homo sapiens, UniProt Q9Y5N1)
[8] = molecular target: 5-hydroxytryptamine receptor 2B (Homo sapiens, UniProt P41595); type: functional, cell-based
D(3) dopamine receptor = D(3) dopamine receptor (Homo sapiens, UniProt P35462)
Thromboxane A2 receptor [9] = molecular target: T4, Thromboxane A2 receptor; type: functional, cell-based; remark: listed apart in the source
Note: assay procedure not described here.

Prostaglandin G/H synthase 1, sequence (P23219 whole entry): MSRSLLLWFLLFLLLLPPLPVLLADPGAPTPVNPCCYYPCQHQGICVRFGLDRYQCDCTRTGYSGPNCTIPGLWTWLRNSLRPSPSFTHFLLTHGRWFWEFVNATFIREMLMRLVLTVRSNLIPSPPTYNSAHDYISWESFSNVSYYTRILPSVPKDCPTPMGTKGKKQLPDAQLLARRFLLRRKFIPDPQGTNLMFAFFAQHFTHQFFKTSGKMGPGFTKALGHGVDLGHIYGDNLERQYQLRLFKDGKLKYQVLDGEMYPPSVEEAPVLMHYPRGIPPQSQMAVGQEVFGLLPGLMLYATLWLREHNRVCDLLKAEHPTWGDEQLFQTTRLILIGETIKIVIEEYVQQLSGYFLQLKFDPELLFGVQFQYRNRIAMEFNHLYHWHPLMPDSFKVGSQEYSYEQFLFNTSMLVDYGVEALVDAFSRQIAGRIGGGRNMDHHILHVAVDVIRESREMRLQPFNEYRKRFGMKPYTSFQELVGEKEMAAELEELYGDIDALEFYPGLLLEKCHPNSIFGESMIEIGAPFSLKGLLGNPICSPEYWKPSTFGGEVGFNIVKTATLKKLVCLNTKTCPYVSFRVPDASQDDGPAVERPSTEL
Voltage-gated inwardly rectifying potassium channel KCNH2, sequence (Q12809 whole entry): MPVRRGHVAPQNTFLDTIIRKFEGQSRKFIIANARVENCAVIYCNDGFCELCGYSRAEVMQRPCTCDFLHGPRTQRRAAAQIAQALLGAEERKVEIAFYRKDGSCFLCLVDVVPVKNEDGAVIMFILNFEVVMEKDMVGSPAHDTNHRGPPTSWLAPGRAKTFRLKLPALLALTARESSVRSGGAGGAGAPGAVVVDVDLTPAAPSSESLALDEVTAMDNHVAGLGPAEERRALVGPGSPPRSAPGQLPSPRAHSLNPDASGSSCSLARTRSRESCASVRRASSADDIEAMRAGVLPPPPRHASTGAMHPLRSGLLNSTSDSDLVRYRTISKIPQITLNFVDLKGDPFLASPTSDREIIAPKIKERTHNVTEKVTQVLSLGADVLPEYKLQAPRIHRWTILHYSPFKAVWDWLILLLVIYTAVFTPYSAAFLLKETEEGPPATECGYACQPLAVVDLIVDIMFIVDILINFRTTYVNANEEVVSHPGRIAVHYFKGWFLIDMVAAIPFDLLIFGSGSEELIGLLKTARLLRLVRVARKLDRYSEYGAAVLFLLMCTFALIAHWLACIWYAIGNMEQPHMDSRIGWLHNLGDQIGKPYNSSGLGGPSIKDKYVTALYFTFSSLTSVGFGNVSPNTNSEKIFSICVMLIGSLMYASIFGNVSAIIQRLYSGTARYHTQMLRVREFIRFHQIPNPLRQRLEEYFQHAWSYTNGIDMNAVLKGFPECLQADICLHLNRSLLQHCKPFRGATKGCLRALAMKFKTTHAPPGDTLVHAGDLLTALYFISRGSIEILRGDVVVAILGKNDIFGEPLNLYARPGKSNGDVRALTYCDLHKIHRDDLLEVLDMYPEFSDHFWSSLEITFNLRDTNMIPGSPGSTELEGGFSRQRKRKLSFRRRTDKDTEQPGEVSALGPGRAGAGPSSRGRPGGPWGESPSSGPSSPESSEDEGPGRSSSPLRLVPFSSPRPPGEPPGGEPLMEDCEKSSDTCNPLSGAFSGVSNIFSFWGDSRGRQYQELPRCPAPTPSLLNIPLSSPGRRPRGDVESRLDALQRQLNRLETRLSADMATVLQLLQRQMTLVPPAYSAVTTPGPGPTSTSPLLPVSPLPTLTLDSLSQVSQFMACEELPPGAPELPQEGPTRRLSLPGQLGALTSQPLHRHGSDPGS
Sodium-dependent dopamine transporter, sequence (Q01959 whole entry): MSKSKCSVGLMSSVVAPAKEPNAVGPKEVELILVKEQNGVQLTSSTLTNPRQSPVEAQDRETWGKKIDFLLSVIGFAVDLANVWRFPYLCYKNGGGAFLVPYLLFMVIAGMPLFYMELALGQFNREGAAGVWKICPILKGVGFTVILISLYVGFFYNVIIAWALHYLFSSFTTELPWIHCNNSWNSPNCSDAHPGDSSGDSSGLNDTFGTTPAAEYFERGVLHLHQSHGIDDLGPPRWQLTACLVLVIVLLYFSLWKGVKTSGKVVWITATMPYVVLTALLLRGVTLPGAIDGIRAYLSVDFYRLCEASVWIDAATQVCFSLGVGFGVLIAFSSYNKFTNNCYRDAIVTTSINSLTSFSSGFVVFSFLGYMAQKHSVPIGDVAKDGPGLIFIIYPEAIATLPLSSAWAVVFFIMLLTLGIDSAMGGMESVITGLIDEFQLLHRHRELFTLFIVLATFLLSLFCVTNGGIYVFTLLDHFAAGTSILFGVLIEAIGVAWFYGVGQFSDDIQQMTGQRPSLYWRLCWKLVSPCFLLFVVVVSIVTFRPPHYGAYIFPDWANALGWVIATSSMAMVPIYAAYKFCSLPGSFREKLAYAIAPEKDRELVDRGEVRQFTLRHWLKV
5-hydroxytryptamine receptor 2B, sequence (P41595 whole entry): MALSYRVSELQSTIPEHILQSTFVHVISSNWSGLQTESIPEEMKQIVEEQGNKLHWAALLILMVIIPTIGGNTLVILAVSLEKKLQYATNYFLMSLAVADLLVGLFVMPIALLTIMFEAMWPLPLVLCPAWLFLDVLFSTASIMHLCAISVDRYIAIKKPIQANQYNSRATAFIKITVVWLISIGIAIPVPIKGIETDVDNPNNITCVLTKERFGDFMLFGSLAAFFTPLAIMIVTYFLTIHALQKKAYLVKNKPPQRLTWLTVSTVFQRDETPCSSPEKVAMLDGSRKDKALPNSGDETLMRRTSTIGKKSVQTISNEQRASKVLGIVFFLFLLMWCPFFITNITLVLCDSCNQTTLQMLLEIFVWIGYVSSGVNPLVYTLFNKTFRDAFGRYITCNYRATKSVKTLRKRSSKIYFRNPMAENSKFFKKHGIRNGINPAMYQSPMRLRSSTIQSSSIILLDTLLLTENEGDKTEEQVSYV
Histamine H3 receptor, sequence (Q9Y5N1 whole entry): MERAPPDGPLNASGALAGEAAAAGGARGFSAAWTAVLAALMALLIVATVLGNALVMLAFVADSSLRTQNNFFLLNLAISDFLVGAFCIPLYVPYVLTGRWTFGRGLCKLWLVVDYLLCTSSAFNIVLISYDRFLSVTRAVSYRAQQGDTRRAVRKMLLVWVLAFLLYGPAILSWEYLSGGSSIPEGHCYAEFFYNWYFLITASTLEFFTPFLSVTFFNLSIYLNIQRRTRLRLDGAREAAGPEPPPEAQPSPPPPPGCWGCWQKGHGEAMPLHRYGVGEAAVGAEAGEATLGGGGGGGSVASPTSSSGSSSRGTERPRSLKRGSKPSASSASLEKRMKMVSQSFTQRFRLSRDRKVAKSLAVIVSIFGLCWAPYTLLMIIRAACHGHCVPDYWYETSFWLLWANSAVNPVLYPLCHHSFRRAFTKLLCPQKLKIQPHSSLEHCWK
cGMP-inhibited 3',5'-cyclic phosphodiesterase 3A, sequence (Q14432 whole entry): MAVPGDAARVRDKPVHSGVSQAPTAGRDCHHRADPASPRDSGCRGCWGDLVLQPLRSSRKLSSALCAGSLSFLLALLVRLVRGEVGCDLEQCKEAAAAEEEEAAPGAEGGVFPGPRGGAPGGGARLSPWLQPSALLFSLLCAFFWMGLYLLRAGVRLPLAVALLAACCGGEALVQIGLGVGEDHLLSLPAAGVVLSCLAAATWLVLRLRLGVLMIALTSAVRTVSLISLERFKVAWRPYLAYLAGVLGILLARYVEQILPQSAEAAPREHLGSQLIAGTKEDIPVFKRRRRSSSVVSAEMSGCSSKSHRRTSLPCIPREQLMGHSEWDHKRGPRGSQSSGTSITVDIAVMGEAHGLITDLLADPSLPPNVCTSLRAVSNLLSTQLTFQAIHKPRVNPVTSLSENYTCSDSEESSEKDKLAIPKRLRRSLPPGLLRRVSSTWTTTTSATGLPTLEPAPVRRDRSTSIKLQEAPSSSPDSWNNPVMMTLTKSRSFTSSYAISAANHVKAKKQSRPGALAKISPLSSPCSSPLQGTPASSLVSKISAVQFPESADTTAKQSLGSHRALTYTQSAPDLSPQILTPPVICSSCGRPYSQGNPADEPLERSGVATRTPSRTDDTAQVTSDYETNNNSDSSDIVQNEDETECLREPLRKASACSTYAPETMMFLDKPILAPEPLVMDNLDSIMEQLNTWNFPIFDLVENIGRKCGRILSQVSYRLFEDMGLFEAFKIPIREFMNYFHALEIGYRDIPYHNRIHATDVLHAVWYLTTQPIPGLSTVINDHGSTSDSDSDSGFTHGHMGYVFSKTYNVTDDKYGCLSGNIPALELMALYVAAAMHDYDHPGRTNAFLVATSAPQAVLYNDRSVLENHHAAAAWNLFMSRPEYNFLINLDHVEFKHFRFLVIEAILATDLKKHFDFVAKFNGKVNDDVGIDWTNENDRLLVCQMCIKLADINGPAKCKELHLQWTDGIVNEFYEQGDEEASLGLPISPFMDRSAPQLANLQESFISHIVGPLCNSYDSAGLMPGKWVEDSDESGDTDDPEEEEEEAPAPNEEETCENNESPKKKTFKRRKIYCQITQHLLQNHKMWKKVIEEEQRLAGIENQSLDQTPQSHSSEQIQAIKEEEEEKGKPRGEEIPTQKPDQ
D(3) dopamine receptor, sequence (P35462 whole entry): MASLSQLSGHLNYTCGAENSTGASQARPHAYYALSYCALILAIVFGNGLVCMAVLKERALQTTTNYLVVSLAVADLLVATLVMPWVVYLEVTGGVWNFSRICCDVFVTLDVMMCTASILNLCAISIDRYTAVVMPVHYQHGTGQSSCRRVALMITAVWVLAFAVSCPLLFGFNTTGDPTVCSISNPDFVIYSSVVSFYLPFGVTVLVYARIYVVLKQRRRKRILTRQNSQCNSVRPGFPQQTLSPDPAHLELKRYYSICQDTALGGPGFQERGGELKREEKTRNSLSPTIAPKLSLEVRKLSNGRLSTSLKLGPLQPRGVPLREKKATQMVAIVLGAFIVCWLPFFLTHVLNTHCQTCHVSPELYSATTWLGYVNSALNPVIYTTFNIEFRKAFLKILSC

Row | SMILES | AC50 [1] | AC50 [2] | AC50 (Progesterone receptor) | AC50 [3] | AC50 [4] | AC50 (Thromboxane A2 receptor [5]) | AC50 [6] | AC50 [7] | AC50 (Histamine H3 receptor) | AC50 [8] | AC50 (D(3) dopamine receptor) | AC50 (Thromboxane A2 receptor [9])
1 | CC(=O)NCCCCCC(=O)O [ACEXAMIC ACID] | > 30 µM | > 30 µM | > 30 µM | > 30 µM | > 30 µM | > 30 µM | > 30 µM | > 30 µM | > 30 µM | > 30 µM | > 30 µM | > 30 µM
2 | CC(C)[C@@H]1CC[C@@H](C)C[C@H]1O [LEVOMENTHOL] | > 30 µM | > 30 µM | > 30 µM | > 30 µM | > 30 µM | > 30 µM | > 30 µM | > 30 µM | > 30 µM | > 30 µM | > 30 µM | > 30 µM
3 | C[C@H]1O[C@@H](O[C@H]2CC[C@@]3(C)[C@H](CC[C@@H]4[C@@H]3C[C@@H](O)[C@]3(C)[C@@H](C5=CC(=O)OC5)CC[C@]43O)C2)C[C@H](O)[C@@H]1O[C@H]1C[C@H](O)[C@H](O[C@H]2C[C@H](O)[C@H](O[C@@H]3O[C@H](CO)[C@@H](O)[C@H](O)[C@H]3O)[C@@H](C)O2)[C@@H](C)O1 [DESLANOSIDE] | > 30 µM | > 30 µM | > 30 µM | > 30 µM | > 30 µM | > 30 µM | > 30 µM | > 30 µM | > 30 µM | > 30 µM | > 30 µM | > 30 µM
4 | Cc1ccsc1C(=CCCN1CCC[C@@H](C(=O)O)C1)c1sccc1C [TIAGABINE] | > 30 µM | > 30 µM | > 30 µM | > 30 µM | > 30 µM | > 30 µM | > 30 µM | > 30 µM | > 30 µM | > 30 µM | > 30 µM | > 30 µM
5 | O=C(NNCS(=O)(=O)O)c1ccncc1 [METHANIAZIDE] | > 30 µM | > 30 µM | > 30 µM | > 30 µM | > 30 µM | > 30 µM | > 30 µM | > 30 µM | > 30 µM | > 30 µM | > 30 µM | > 30 µM
6 | C=N[C@@H](C(=O)N[C@@H]1C(=O)N2[C@@H]1SC(C)(C)[C@@H]2C(=O)O)c1ccccc1 [METAMPICILLIN] | > 30 µM | > 30 µM | > 30 µM | > 30 µM | > 30 µM | > 30 µM | 11.8 µM | > 30 µM | > 30 µM | > 30 µM | > 30 µM | > 30 µM
7 | Cc1cc(=O)[nH]c(=S)[nH]1 [METHYLTHIOURACIL] | > 30 µM | > 30 µM | > 30 µM | > 30 µM | > 30 µM | > 30 µM | > 30 µM | > 30 µM | > 30 µM | > 30 µM | > 30 µM | > 30 µM
8 | CC[C@]12CCCN3CCc4c(n(c5ccccc45)[C@@](O)(C(=O)OC)C1)[C@@H]32 [VINCAMINE] | > 30 µM | 0.46 µM | > 30 µM | > 30 µM | > 30 µM | > 30 µM | > 30 µM | > 30 µM | > 30 µM | > 30 µM | > 30 µM | > 30 µM
9 | C[N+]1(C)CCCC(OC(=O)C(O)(c2ccccc2)c2ccccc2)C1 (stereo not given) [MEPENZOLATE] | > 30 µM | 13 µM | > 30 µM | > 30 µM | > 30 µM | > 30 µM | > 30 µM | > 30 µM | > 30 µM | > 30 µM | > 30 µM | > 30 µM
10 | CCCCC(CC)CN1CN(CC(CC)CCCC)CC(C)(N)C1 (stereo not given) [HEXETIDINE] | 3.44 µM | 0.75 µM | > 30 µM | 14.4 µM | 4.6 µM | > 30 µM | > 30 µM | > 30 µM | > 10 µM | > 30 µM | 4.84 µM | > 30 µM
11 | C[N+](C)(CCCCCC[N+](C)(C)C1c2ccccc2-c2ccccc21)C1c2ccccc2-c2ccccc21 [HEXAFLUORENIUM] | 0.868 µM |  | > 30 µM | 2.19 µM | 4.5 µM | > 30 µM | > 30 µM | > 30 µM | 2.72 µM | > 30 µM | 0.0671 µM | > 30 µM
12 | CCCCc1oc2ccc(NS(C)(=O)=O)cc2c1C(=O)c1ccc(OCCCN(CCCC)CCCC)cc1 [DRONEDARONE] | 1.72 µM |  | 0.64 µM | 13.4 µM | 1.73 µM | 14.7 µM | > 30 µM | > 30 µM | 28.4 µM | > 30 µM | 0.642 µM | > 30 µM
13 | CC(C)C(=O)Oc1ccc(CO)cc1[C@H](CCN(C(C)C)C(C)C)c1ccccc1 [FESOTERODINE] | > 30 µM |  | > 30 µM | > 30 µM | > 30 µM | > 30 µM | > 30 µM | > 30 µM | > 30 µM | > 30 µM | > 30 µM | > 30 µM
14 | O=C(O)c1ccccc1 [BENZOIC ACID] | > 30 µM |  | > 30 µM | > 30 µM | > 30 µM | > 30 µM | > 30 µM | > 30 µM | > 30 µM | > 30 µM | > 30 µM | > 30 µM
15 | C#C[C@]1(O)C=C[C@H]2[C@@H]3CCC4=CC(=O)CC[C@@H]4[C@H]3CC[C@@]21CC [GESTODENE] | > 30 µM |  | 0.003 µM | > 30 µM | > 30 µM | > 30 µM | > 30 µM | > 30 µM | > 30 µM | > 30 µM | > 30 µM | > 30 µM
